Assay results from the supplement of paper PMC11061612.

Legend:
Assay in all cases: combination Emax (second highest fraction inhibited in the dose matrix, 72 h); higher = more inhibition; extreme values may be limits of the assay
42-MG-BA (Glioblastoma) = test system: 42-MG-BA (Glioblastoma)
Outline: (§1)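 After 24 hours at 37°C and 5% CO2 in 1536-well plates, cells in DMEM/F12 or RPMI plus 10% FBS received two-drug dose matrices for 72 hours. Viability came from CellTiter-Glo 2.0 luminescence and was scaled as inhibition, anchored at 0 by vehicle wells and at 1 by blank wells. Combination Emax is taken as the second-highest inhibition in the matrix, and Bliss excess as the observed combination effect less EA + EB − EA·EB, with EA and EB the single-agent effects.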

AGS (Gastric Carcinoma) = test system: AGS (Gastric Carcinoma)
Outline: as §1

[1] = test system: DEL (T-Cell Non-Hodgkin's Lymphoma)
Outline: as §1

[2] = test system: HO-1-N-1 (Oral Cavity Carcinoma)
Outline: as §1

HOS (Osteosarcoma) = test system: HOS (Osteosarcoma)
Outline: as §1

[3] = test system: KURAMOCHI (Ovarian Carcinoma)
Outline: as §1

[4] = test system: KYSE-520 (Esophageal Squamous Cell Carcinoma)
Outline: as §1

[5] = test system: LU-135 (Small Cell Lung Carcinoma)
Outline: as §1

[6] = test system: MDA-MB-361 (Breast Carcinoma)
Outline: as §1

[7] = test system: MFE-296 (Endometrial Carcinoma)
Outline: as §1

NB10 (Neuroblastoma) = test system: NB10 (Neuroblastoma)
Outline: as §1

NOS-1 (Osteosarcoma) = test system: NOS-1 (Osteosarcoma)
Outline: as §1

[8] = test system: OVCA420 (Ovarian Carcinoma)
Outline: as §1

[9] = test system: RO82-W-1 (Thyroid Gland Carcinoma)
Outline: as §1

[10] = test system: Ramos-2G6-4C10 (Burkitt's Lymphoma)
Outline: as §1

[11] = test system: SNU-5 (Gastric Carcinoma)
Outline: as §1

T98G (Glioblastoma) = test system: T98G (Glioblastoma)
Outline: as §1

[12] = test system: TCCSUP (Bladder Carcinoma)
Outline: as §1

[13] = test system: TE-15 (Esophageal Squamous Cell Carcinoma)
Outline: as §1

[14] = test system: TE-9 (Esophageal Squamous Cell Carcinoma)
Outline: as §1

Structure (SMILES)	combination Emax (42-MG-BA (Glioblastoma))	combination Emax (AGS (Gastric Carcinoma))	combination Emax [1]	combination Emax [2]	combination Emax (HOS (Osteosarcoma))	combination Emax [3]	combination Emax [4]	combination Emax [5]	combination Emax [6]	combination Emax [7]	combination Emax (NB10 (Neuroblastoma))	combination Emax (NOS-1 (Osteosarcoma))	combination Emax [8]	combination Emax [9]	combination Emax [10]	combination Emax [11]	combination Emax (T98G (Glioblastoma))	combination Emax [12]	combination Emax [13]	combination Emax [14]
CC(=O)Nc1cccc(-n2c(=O)n(C3CC3)c(=O)c3c(Nc4ccc(I)cc4F)n(C)c(=O)c(C)c32)c1 [Trametinib] + Cc1nc(-c2cn3c(n2)-c2ccc(-c4cnn(C(C)(C)C(N)=O)c4)cc2OCC3)n(C(C)C)n1 [Taselisib] (first compound max 1 µM, 7x7, partner max 10 µM)	0.971	1	0.618	0.991	0.43	0.703	0.846	0.514	0.976	0.43	0.921	0.928	0.917	0.41	0.121	0.829	0.855	0.65	0.664	0.824
CC1(C)CCC(CN2CCN(c3ccc(C(=O)NS(=O)(=O)c4ccc(NCC5CCOCC5)c([N+](=O)[O-])c4)c(Oc4cnc5[nH]ccc5c4)c3)CC2)=C(c2ccc(Cl)cc2)C1 [Venetoclax] + C1CN(CCC1(C(=O)N[C@@H](CCO)C2=CC=C(C=C2)Cl)N)C3=NC=NC4=C3C=CN4 [Capivasertib] (first compound max 1 µM, 7x7, partner max 3 µM)	0.518	0.316	0.295	0.258	0.281	0.536	0.467	0.317	0.474	0.37	0.139	0.171	0.146	0.251	0.173	0.336	0.326	0.189	0.401	0.192
CC1(C)CCC(CN2CCN(c3ccc(C(=O)NS(=O)(=O)c4ccc(NCC5CCOCC5)c([N+](=O)[O-])c4)c(Oc4cnc5[nH]ccc5c4)c3)CC2)=C(c2ccc(Cl)cc2)C1 [Venetoclax] + C=CCn1c(=O)c2cnc(Nc3ccc(N4CCN(C)CC4)cc3)nc2n1-c1cccc(C(C)(C)O)n1 [AZD1775] (first compound max 1 µM, partner max 1 µM)	0.287	0.595	1	0.745	0.406	0.755	0.595	0.688	0.865	0.3	0.865	0.675	0.384	0.261	0.984	0.557	0.889	0.475	0.796	0.691
CC1(C)CCC(CN2CCN(c3ccc(C(=O)NS(=O)(=O)c4ccc(NCC5CCOCC5)c([N+](=O)[O-])c4)c(Oc4cnc5[nH]ccc5c4)c3)CC2)=C(c2ccc(Cl)cc2)C1 [Venetoclax] + CCN(CCO)CCCOc1ccc2c(Nc3cc(CC(=O)Nc4cccc(F)c4)[nH]n3)ncnc2c1 [AZD2811] (first compound max 1 µM, 7x7, partner max 1 µM)	0.534	0.346	0.754	0.687	0.214	0.471	0.304	0.899	0.334	0.124	0.5	0.255	0.188	0.141	0.269	0.151	0.394	0.311	0.441	0.154
CC1(C)CCC(CN2CCN(c3ccc(C(=O)NS(=O)(=O)c4ccc(NCC5CCOCC5)c([N+](=O)[O-])c4)c(Oc4cnc5[nH]ccc5c4)c3)CC2)=C(c2ccc(Cl)cc2)C1 [Venetoclax] + CN(C)CCCOc1ccc(-c2ccc3ncc4c(c3c2)n(C2CCOCC2)c(=O)n4C)cn1 [AZD0156] (first compound max 1 µM, 7x7, partner max 1 µM)	0.367	0.221	0.192	0.53	0.152	0.567	0.181	0.274	0.261	0.144	0.538	0.194	0.178	0.126	0.627	0.222	0.332	0.189	0.451	0.141
CC1(C)CCC(CN2CCN(c3ccc(C(=O)NS(=O)(=O)c4ccc(NCC5CCOCC5)c([N+](=O)[O-])c4)c(Oc4cnc5[nH]ccc5c4)c3)CC2)=C(c2ccc(Cl)cc2)C1 [Venetoclax] + COc1cc(Nc2ncc3c(n2)-c2ccc(Cl)cc2C(c2c(F)cccc2OC)=NC3)ccc1C(=O)O [Alisertib] (first compound max 1 µM, 7x7, partner max 10 µM)	0.59	0.557	1	0.876	0.248	0.474	0.493	0.797	0.773	0.225	0.995	0.575	0.326	0.422	0.474	0.158	0.556	0.475	0.686	0.369
CC1(C)CCC(CN2CCN(c3ccc(C(=O)NS(=O)(=O)c4ccc(NCC5CCOCC5)c([N+](=O)[O-])c4)c(Oc4cnc5[nH]ccc5c4)c3)CC2)=C(c2ccc(Cl)cc2)C1 [Venetoclax] + C[C@@H]1COCCN1C2=NC(=NC(=C2)C3(CC3)[S@](=N)(=O)C)C4=C5C=CNC5=NC=C4 [AZD6738] (first compound max 1 µM, 7x7, partner max 10 µM)	0.678	0.72	0.996	0.871	0.642	0.567	0.575	0.761	0.884	0.387	0.849	0.67	0.493	0.322	0.789	0.934	0.889	0.638	0.796	0.274
CC1(C)CCC(CN2CCN(c3ccc(C(=O)NS(=O)(=O)c4ccc(NCC5CCOCC5)c([N+](=O)[O-])c4)c(Oc4cnc5[nH]ccc5c4)c3)CC2)=C(c2ccc(Cl)cc2)C1 [Venetoclax] + C[C@@H](Nc1cc(F)cc(F)c1)c1cc(C(=O)N(C)C)cc2c(=O)cc(N3CCOCC3)oc12 [AZD8186] (first compound max 1 µM, 7x7, partner max 3 µM)	0.391	0.106	0.312	0.152	0.0842	0.306	0.247	0.484	0.372	0.0282	0.24	0.462	0.165	0.217	0.221	0.406	0.411	0.131	0.369	0.129
CC1(C)CCC(CN2CCN(c3ccc(C(=O)NS(=O)(=O)c4ccc(NCC5CCOCC5)c([N+](=O)[O-])c4)c(Oc4cnc5[nH]ccc5c4)c3)CC2)=C(c2ccc(Cl)cc2)C1 [Venetoclax] + Cc1cc2ncnn2cc1Nc1ncc2c(n1)n(C1CCOCC1)c(=O)n2C [AZD7648] (first compound max 1 µM, 7x7, partner max 10 µM)	0.43	0.199	0.457	0.331	0.204	0.477	0.34	0.386	0.44	0.147	0.246	0.244	0.223	0.224	0.289	0.325	0.352	0.271	0.295	0.154
CC1(C)CCC(CN2CCN(c3ccc(C(=O)NS(=O)(=O)c4ccc(NCC5CCOCC5)c([N+](=O)[O-])c4)c(Oc4cnc5[nH]ccc5c4)c3)CC2)=C(c2ccc(Cl)cc2)C1 [Venetoclax] + Cn1cnc2c(F)c(Nc3ccc(Br)cc3Cl)c(C(=O)NOCCO)cc21 [Selumetinib] (first compound max 1 µM, 7x7, partner max 3 µM)	0.215	0.656	0.382	0.205	0.089	0.502	0.299	0.332	0.155	0.0803	0.381	0.227	0.403	0.116	0.035	0.453	0.163	0.136	0.263	0.0846
